Measurements from patent US20090149455A1, “Use of Triazolopyrimidines for Controlling Plant Diseases on Legumes” (Bayer CropScience AG, priority 2005, published 2009).

Test: log p
Assay type: physicochemical

Compound | log p
Fc1c(F)c(F)c(-c2c(Cl)nc3ncnn3c2N2CCCC2)c(F)c1F [Example 207] | 3.11
Fc1c(F)c(F)c(-c2c(Cl)nc3ncnn3c2N2CCCCC2C(F)(F)F)c(F)c1F (stereo not drawn) [Example 208] | 4.09
Fc1c(F)c(F)c(-c2c(Cl)nc3ncnn3c2N2CCSCC2)c(F)c1F [Example 209] | 3.29
Fc1ccc(-c2c(Cl)nc3ncnn3c2N2CCCC2C(F)(F)F)c(F)c1 (stereo not drawn) [Example 210] | 3.2
Fc1cccc(Cl)c1-c1c(Cl)nc2ncnn2c1N1CC=CCO1 [Example 243] | 2.78
Fc1cccc(Cl)c1-c1c(Cl)nc2ncnn2c1N1CCCC=N1 [Example 244] | 2.58
Clc1ccc(-c2c(Cl)nc3ncnn3c2N2CCCCO2)c(Cl)c1 [Example 245] | 3.51
CC1C=CCN(c2c(-c3c(F)cc(F)cc3F)c(Cl)nc3ncnn23)O1 (stereo not drawn) [Example 246] | 3.12
Fc1ccc(-c2c(Cl)nc3ncnn3c2N2CCCCN2)c(C(F)(F)F)c1 [Example 249] | 2.98
Clc1ccc(-c2c(Cl)nc3ncnn3c2N2CCOCC2)c(Cl)c1 [Example 254] | 2.78
Fc1cccc(Cl)c1-c1c(Cl)nc2ncnn2c1N1CCCN1 [Example 260] | 2.29
Fc1ccc(-c2c(Cl)nc3ncnn3c2N2CCCN2)c(Cl)c1 [Example 261] | 2.39
Fc1cc(F)c(-c2c(Cl)nc3ncnn3c2N2CCCN2)c(F)c1 [Example 262] | 2.32
CC1CNN(c2c(-c3c(F)cccc3Cl)c(Cl)nc3ncnn23)CC1C (stereo not drawn) [Example 264] | 3.32
CC1CCN(c2c(-c3ccc(F)cc3Cl)c(Cl)nc3ncnn23)NC1 (stereo not drawn) [Example 265] | 3.22
CC1CNN(c2c(-c3ccc(F)cc3Cl)c(Cl)nc3ncnn23)CC1C (stereo not drawn) [Example 266] | 3.43
CC1CCN(c2c(-c3c(F)cccc3Cl)c(Cl)nc3ncnn23)NC1 (stereo not drawn) [Example 267] | 3.01
Cc1cc(C)n(-c2c(-c3c(F)cccc3Cl)c(Cl)nc3ncnn23)n1 [Example 268] | 2.87
Cc1cc(C)n(-c2c(-c3ccc(F)cc3Cl)c(Cl)nc3ncnn23)n1 [Example 269] | 2.94
CC1CNN(c2c(-c3c(F)cc(F)cc3F)c(Cl)nc3ncnn23)CC1C (stereo not drawn) [Example 270] | 3.35
CC1CCN(c2c(-c3ccccc3Cl)c(Cl)nc3ncnn23)NC1 (stereo not drawn) [Example 271] | 3
CC1C=NN(c2c(-c3c(F)cc(F)cc3F)c(Cl)nc3ncnn23)CC1 (stereo not drawn) [Example 273] | 2.85
CC1CCN(c2c(-c3c(F)cc(F)cc3F)c(Cl)nc3ncnn23)NC1 (stereo not drawn) [Example 274] | 3.05
CC1C=NN(c2c(-c3c(F)cccc3Cl)c(Cl)nc3ncnn23)CC1C (stereo not drawn) [Example 275] | 3.15
CC1C=NN(c2c(-c3c(F)cc(F)cc3F)c(Cl)nc3ncnn23)CC1C (stereo not drawn) [Example 276] | 3.14
CC1C=NN(c2c(-c3ccccc3Cl)c(Cl)nc3ncnn23)CC1C (stereo not drawn) [Example 277] | 3.1
CC1CNN(c2c(-c3ccccc3Cl)c(Cl)nc3ncnn23)CC1C (stereo not drawn) [Example 278] | 3.3
CC1CCN(c2c(-c3c(F)cccc3Cl)c(C#N)nc3ncnn23)CC1 [Example 280] | 3.37

The next lines start with the values.

log p | Compound
2.72 | Clc1ccccc1-c1c(Cl)nc2ncnn2c1N1CCCC1 [Example 247]
3.6 | CC1CCCCN1c1c(-c2ccccc2Cl)c(Cl)nc2ncnn12 (stereo not drawn) [Example 248]
2.5 | Clc1nc2ncnn2c(N2CCCC2)c1-c1ccccc1 [Example 250]
3.05 | Clc1nc2ncnn2c(N2CCCCC2)c1-c1ccccc1 [Example 251]
2.03 | Clc1nc2ncnn2c(N2CCOCC2)c1-c1ccccc1 [Example 252]
3.47 | CC1CCN(c2c(-c3ccccc3)c(Cl)nc3ncnn23)CC1 [Example 253]
3.1 | CC1CCCN1c1c(-c2ccccc2Cl)c(Cl)nc2ncnn12 (stereo not drawn) [Example 255]
3.71 | CC1CCN(c2c(-c3ccccc3Cl)c(Cl)nc3ncnn23)CC1 [Example 256]
3.26 | Clc1ccccc1-c1c(Cl)nc2ncnn2c1N1CCCCC1 [Example 257]
2.87 | CC1CCCN1c1c(-c2ccccc2)c(Cl)nc2ncnn12 (stereo not drawn) [Example 258]
3.35 | CC1CCCCN1c1c(-c2ccccc2)c(Cl)nc2ncnn12 (stereo not drawn) [Example 259]
2.2 | Clc1ccccc1-c1c(Cl)nc2ncnn2c1N1CCCN1 [Example 263]
2.79 | CC1C=NN(c2c(-c3ccccc3Cl)c(Cl)nc3ncnn23)CC1 (stereo not drawn) [Example 272]
3.8 | CC1CCN(c2c(-c3ccccc3C(F)(F)F)c(Cl)nc3ncnn23)CC1 [Example 279]
